According to PubChem BioAssay AID2060485 (Molecular Pharmacology Branch, DTP, NCI, 2025):

Tested on: A375 multi-cell spheroids with HUVEC/MSC, viability
Assay: Anticancer human tumor A375 cell line growth inhibition [GQUAD];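 further: spheroids exposed to compounds for seven days before readout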
Conditions: for IC50: curve of first compound; for viability, T/C: stronger effect = lower value; active means viability on the fitted dose curve at most 10% of control; inactive means the rest
Description: DNA G-quadruplex Stabilizer Agents in Combinations in Complex Spheroids
A high-throughput screen of multi-cell type tumor spheroids was designed to identify active combinations of DNA G-quadruplex stabilizer agents and targeted small molecules. Complex spheroids include a stromal component modeled by human endothelial cells (HUVEC) and fibroblasts modeled by human mesenchymal stem cells (MSCs). The concentration ranges selected for each drug and investigational agent were based upon clinically achievable concentrations if the clinical Cmax of the agent was known.
Compounds. The drugs and investigational agents: pidnarulex (CX-5461; NSC782164), APTO-253 (NSC789042), BRACO-19 (NSC847499), peposertib (NSC802822), ceralasertib (NSC780249), elimusertib (NSC800525), camonsertib (NSC841442), AZD-1390 (NSC803789), olaparib (NSC753686), talazoparib (NSC767125), ART-558 (NSC835418), sotorasib (NSC818433), MRTX-1133 (NSC836407), SN-38 (NSC673596), topotecan (NSC609699), etoposide (NSC141540), doxorubicin (NSC123127), gemcitabine (NSC613327), 5-fluorouracil (NSC19893), paclitaxel (NSC125973), vemurafenib (NSC761431), panobinostat (NSC761190), R-306465 (JNJ-16241199; NSC773264), adavosertib (NSC754352), TP-3654 (NSC805149), carboplatin (NSC241240), KSQ-4279 (NSC840948), and staurosporine (NSC755774) were obtained from the National Cancer Institute (NCI) Developmental Therapeutics Program Chemical Repository (34). The FDA-approved anticancer drug set is available from the NCI Developmental Therapeutics Program. […] The stock solutions were prepared in dimethyl sulfoxide (DMSO, Sigma-Aldrich, St. Louis, MO, cat. D2650) at 800-fold the tested concentration and stored at -70 degrees C prior to their use. All drugs and investigational agents were tested over a range starting from a high concentration at or near the clinical Cmax and decreasing in half-log increments. If the clinical Cmax for an agent had not been determined, the highest concentration tested was 10 microM.
2.3 Cell Culture. All cells were maintained in an incubator at 37 degrees C and 5% CO2 with 95% humidity. The PDC lines were cultured according to standard operating procedures established by the NCI PDMR. All PDCs were thawed and cultured in Matrigel-coated flasks prepared with a working solution of 1X Ham's F-12 nutrient mix, without supplementation (Invitrogen, cat. 11765054), 100 U/mL penicillin-streptomycin (Invitrogen, cat. 15140122), and 2.5% Matrigel (Corning Inc., cat. 354248) for the first three passages. The 857933-349-R-J2-PDC line was cultured in 6C/Colon 1B media, which includes advanced DMEM/F-12 (Thermo Fisher Scientific, cat. 12634028), 10 mM HEPES (Thermo Fisher Scientific, cat. 15630080), 1X GlutaMAX supplement (Thermo Fisher Scientific, cat. 35050061), 0.1 mg/mL primocin (InvivoGen, cat. ant-pm-2), 10% defined fetal bovine serum, heat inactivated (HyClone Laboratories Inc., cat. SH30070.03HI), 50% L-WRN conditioned media (ATCC, cat. CRL-3276), 1.25 mM N-Acetyl-L-cysteine (Sigma-Aldrich, cat. A9165), 10 mM nicotinamide (Sigma-Aldrich, cat. N0636), 1X B-27 supplement (Thermo Fisher Scientific, cat. 17504044), 1X N-2 supplement (Thermo Fisher Scientific, cat. 17502048), 10 microM Y-27632 dihydrochloride (Tocris Bioscience, cat. 1254), and 50 ng/mL human EGF recombinant protein (Thermo Fisher Scientific, cat. PHG0311). The 485176-168-R4-J1-PDC line was cultured in Panc media, which includes all 6C/Colon 1B media components plus 100 ng/mL human FGF-10 (Thermo Fisher Scientific, cat. 100-26), 500 nM SB-431542 (Selleckchem, cat. S1067), and gastrin (Tocris, cat. 3006).
[…]

[1] = second compound 0.0316 µM, first compound 0.0316 µM
[2] = second compound 0.0316 µM, first compound 0.1 µM
[3] = second compound 0.0316 µM, first compound 0.316 µM
[4] = second compound 0.0316 µM, first compound 1 µM
[5] = second compound 0.0316 µM, first compound 3.16 µM
[6] = second compound 0.0316 µM, first compound 10 µM
[7] = second compound 0.1 µM, first compound 0.0316 µM
[8] = second compound 0.1 µM, first compound 0.1 µM
[9] = second compound 0.1 µM, first compound 0.316 µM
[10] = second compound 0.1 µM, first compound 1 µM
[11] = second compound 0.1 µM, first compound 3.16 µM
[12] = second compound 0.1 µM, first compound 10 µM
[13] = second compound 0.316 µM, first compound 0.0316 µM
[14] = second compound 0.316 µM, first compound 0.1 µM
[15] = second compound 0.316 µM, first compound 0.316 µM
[16] = second compound 0.316 µM, first compound 1 µM
[17] = second compound 0.316 µM, first compound 3.16 µM
[18] = second compound 0.316 µM, first compound 10 µM
[19] = second compound 1 µM, first compound 0.0316 µM
[20] = second compound 1 µM, first compound 0.1 µM
[21] = second compound 1 µM, first compound 0.316 µM
[22] = second compound 1 µM, first compound 1 µM
[23] = second compound 1 µM, first compound 3.16 µM
[24] = second compound 1 µM, first compound 10 µM
[25] = second compound 3.16 µM, first compound 0.0316 µM
[26] = second compound 3.16 µM, first compound 0.1 µM
[27] = second compound 3.16 µM, first compound 0.316 µM
[28] = second compound 3.16 µM, first compound 1 µM
[29] = second compound 3.16 µM, first compound 3.16 µM
[30] = second compound 3.16 µM, first compound 10 µM
[31] = second compound 10 µM, first compound 0.0316 µM
[32] = second compound 10 µM, first compound 0.1 µM
[33] = second compound 10 µM, first compound 0.316 µM
[34] = second compound 10 µM, first compound 1 µM
[35] = second compound 10 µM, first compound 3.16 µM
[36] = second compound 10 µM, first compound 10 µM

CC(C)n1c(=O)n(C)c2cnc3cc(F)c(-c4ccc(OCCCN5CCCCC5)nc4)cc3c21 + CN(C)c1ccc(Nc2c3ccc(NC(=O)CCN4CCCC4)cc3nc3cc(NC(=O)CCN4CCCC4)ccc23)cc1
4.83 µM: IC50 (second compound 10 µM)
> 10 µM: IC50 (second compound 0.0316 µM) | IC50 (second compound 0.1 µM) | IC50 (second compound 0.316 µM) | IC50 (second compound 1 µM) | IC50 (second compound 3.16 µM)
inactive: viability, T/C [1] 109% | viability, T/C [2] 99.5% | viability, T/C [3] 105% | viability, T/C [4] 106% | viability, T/C [5] 114% | viability, T/C [6] 88.3% | viability, T/C [7] 108% | viability, T/C [8] 106% | viability, T/C [9] 97.9% | viability, T/C [10] 98.5% | viability, T/C [11] 115% | viability, T/C [12] 91.2% | viability, T/C [13] 103% | viability, T/C [14] 97.1% | viability, T/C [15] 103% | viability, T/C [16] 109% | viability, T/C [17] 116% | viability, T/C [18] 78.3% | viability, T/C [19] 103% | viability, T/C [20] 102% | viability, T/C [21] 108% | viability, T/C [22] 108% | viability, T/C [23] 110% | viability, T/C [24] 78% | viability, T/C [25] 97.4% | viability, T/C [26] 98.1% | viability, T/C [27] 104% | viability, T/C [28] 103% | viability, T/C [29] 107% | viability, T/C [30] 59.6% | viability, T/C [31] 102% | viability, T/C [32] 96.4% | viability, T/C [33] 94.2% | viability, T/C [34] 89.4% | viability, T/C [35] 61% | viability, T/C [36] 30.5%

Nc1ccn(C2OC(CO)C(O)C2(F)F)c(=O)n1 (centres undefined) + CN(C)c1ccc(Nc2c3ccc(NC(=O)CCN4CCCC4)cc3nc3cc(NC(=O)CCN4CCCC4)ccc23)cc1
inactive: viability, T/C [1] 13.1% | viability, T/C [7] 12.4% | viability, T/C [13] 13.4% | viability, T/C [19] 11% | viability, T/C [25] 13.2% | viability, T/C [31] 11.4%
< 0.0316 µM: IC50 (second compound 0.0316 µM) | IC50 (second compound 0.1 µM) | IC50 (second compound 0.316 µM) | IC50 (second compound 1 µM) | IC50 (second compound 3.16 µM) | IC50 (second compound 10 µM)
active: viability, T/C [2] 5.96% | viability, T/C [3] 5.05% | viability, T/C [4] 6.71% | viability, T/C [5] 7.93% | viability, T/C [6] 7.84% | viability, T/C [8] 6.04% | viability, T/C [9] 6.62% | viability, T/C [10] 6.98% | viability, T/C [11] 7.52% | viability, T/C [12] 8.82% | viability, T/C [14] 5.96% | viability, T/C [15] 6.92% | viability, T/C [16] 7.41% | viability, T/C [17] 8.24% | viability, T/C [18] 9.65% | viability, T/C [20] 6.99% | viability, T/C [21] 6.31% | viability, T/C [22] 6.93% | viability, T/C [23] 7.59% | viability, T/C [24] 10.1% | viability, T/C [26] 6.34% | viability, T/C [27] 6.54% | viability, T/C [28] 7.74% | viability, T/C [29] 8.41% | viability, T/C [30] 9.18% | viability, T/C [32] 5.96% | viability, T/C [33] 6.62% | viability, T/C [34] 6.28% | viability, T/C [35] 9.34% | viability, T/C [36] 7.97%
